Measurements from patent publication US10167507B2, “Metabolic diseases-related odorant receptor genes and use thereof” (INDUSTRY-ACADEMIC COOPERATION FOUNDATION, YONSEI UNIVERSITY, priority 2010, dated 2019).
Values belong to the molecule of their own block, whether it stands above or below them.

Columns and labels:
[1] = test system: HSL (hormone sensitive lipase); assay: Western blotting, protein phosphorylation of HSL; format: in vivo, mouse; conditions: for HSL phosphorylation, increase (change rate): odor component-supplemented group to the HFD control group
Experimental: (§6) A certain amount of visceral fat or liver tissues in mortar was homogenized with liquid nitrogen and cell lysis buffer. The mixture was transferred to a new tube, followed by vortexing. After centrifugation at 13,000×g for 20 min at 4° C., the middle layer of the tube was obtained and proteins were quantified by Bradford method. 50 μg of protein was electrophorized to SDS polyacrylamide gel, followed by electroblotting to PVDF hyper film. The protein was reacted using an appropriate antibody for the protein and detected by ECL, whereby insulin resistance, adipocyte differentiation, lipid metabolism or energy consumption-related mechanism of phytochemical components was investigated in the protein level.
(§7) In order to verify this, protein phosphorylations of HSL (hormone sensitive lipase), CREB (cAMP-responsive element binding protein) and AKT (v-akt murine thymoma viral oncogene) were evaluated by western blotting analysis.

[2] = test system: olfactory receptors in visceral fat tissue; assay: OligoDNA microarray, visceral fat tissue of HFD mice fed odor components; format: in vivo, mouse
Experimental: DNA microarry analysis using RNAs of visceral fat and liver tissue was conducted by GENOCHECK (CO., LTD.). RNA samples were pooled from 10 mice in each experimental group and subjected to microarray experiments in triplicate for the test of reproducibility. NimbleGen Mouse Whole Oligo 12-plex chip used in this experiment was prepared by triplicating 42,576 genes using Mouse Genome Build 8 as database. In NimbleGen mouse Whole Oligo 12-plex chip, 137,090 spots excluded control group gene were spotted by 16 μm×16 μm size in 17.4 mm×13 mm size. 42,576 oligo included 137,145 genes which are known their functions and 5,431 transcripts and EST sequences which are unknown their functions. 10-50 μg of total RNA was added in oligo-dT primer, reverse transcriptase, dNTP, Cy3-dUTP and Cy5-dUTP, and reverse-transcripted according to the kit manufacturer's recommendations. The resultant was purified using cartridge, dried and dissolved in hybridization buffer solution (30 μL). The microarray was placed in hybridization cassette, heated at 95-100° C. for 5 min, mixed independently to each of RNA labeled with Cy3 and Cy5, and hybridized at 45° C. for 18 hrs. The slide was washed twice in solution containing 1×SSC and 0.1% SDS for 5 min, washed in 1×SSC for 5 min and dried to analyze.

[3] = test system: obesity and metabolic diseases-related genes in liver tissue; assay: RT-PCR of obesity and metabolic diseases-related genes, liver tissue; format: in vivo, mouse; conditions: odor component-supplemented group to the HFD control group
Experimental: (§1) After adding 1 mL of Trizol agent (Invitrogen, USA) per 0.1 g of visceral fat or liver tissues, the mixture was homogenized and centrifuged at 12,000×g for 10 min at 4° C. The supernatant was transferred to a new tube and 200 μl of chloroform was added to the tube, followed by vortexing. The same procedure was repeated twice and then the supernatant was transferred to a new tube, followed by addition of isopropanol and the supernatant at 1:1 ratio. The mixture was vigorously shaken 10 times and then incubated for 10 min at room temperature, followed by centrifugation at 12,000×g for 10 min at 4° C. to remove the supernatant. After adding 1 mL of 70% ethanol to the remaining pellet, it was centrifuged at 7,500×g for 5 min at 4° C. After removing the ethanol, the RNA pellet contained in the tube was dried for 5 min at 4° C. and dissolved in nuclease-free water. The RNA sample concentration was measured at a wavelength of 260 nm and 280 nm using a UV/VIS spectrophotometer (Beckman coulter, DU730) and the integrity of RNA sample was verified by agarose gel electrophoresis. The RNA sample obtained from the visceral fat or liver tissues was trasnscribed using oligo dT primer and reverse transcriptase (GIBCO BRL, Gaithersburg, Md., USA) to synthesize cDNA. The PCR amplification was performed using the cDNA as templates and primers complementary to cDNA [NT] flanking sequence. 1 μl of the amplified products were resolved on agarose gel electrophoresis to verify DNA band.

[4] = test system: CREB (cAMP-responsive element binding protein); assay: Western blotting, protein phosphorylation of CREB; format: in vivo, mouse; conditions: for CREB phosphorylation, increase (change rate): odor component-supplemented group to the HFD control group
Experimental: as §6, §7

[5] = test system: olfactory receptors in liver tissue; assay: OligoDNA microarray, liver tissue of HFD mice fed odor components; format: in vivo, mouse
From the text: (§2) The obesity-inducing control diet used in the test was high-fat diet (HFD: 40% fat calorie, 17 g lard+3% corn oil/100 g diet). Diets supplemented with an odor component had the same composition as HFD, except that each of various types of odor components (indol-3-carbinol, oleuropein, cedryl acetate, α-cedrene and piperine) having anti-obesity efficacy was contained in 0.02-0.05% concentration. Indo)-3-carbinol, oleuropein, cedryl acetate, a-cedrene and piperine were purchased from Sigma-Aldrich.
(§3) After adding Trizol agent to visceral fat or liver tissue, the mixture was homogenized and centrifuged at 12,000×g for 10 min at 4° C. The supernatant was transferred to a new tube to remove fat layer. Then, 200 μl of chloroform was added to the tube, followed by vortexing. The same procedure was repeated twice and then the supernatant was transferred to a new tube, followed by addition of isopropanol and the supernatant at 1:1 ratio. The mixture was vigorously shaken 10 times and then incubated for 10 min at room temperature, followed by centrifugation at 12,000×g for 10 min at 4° C. to remove the supernatant. After adding 1 mL of 70% ethanol to the remaining pellet, it was centrifuged at 7,500×g for 5 min at 4° C. After removing the ethanol, the RNA pellet contained in the tube was dried for 5 min at 4° C. and dissolved in nuclease-free water. The RNA sample concentration was measured at a wavelength of 260 nm and 280 nm using a UV/VIS spectrophotometer (Beckman coulter, DU730) and the integrity of RNA sample was verified by agarose gel electrophoresis.
(§4) DNA microarry analysis using RNAs of visceral fat and liver tissue was conducted by GENOCHECK (CO., LTD.). RNA samples were pooled from 10 mice in each experimental group and subjected to microarray experiments in triplicate for the test of reproducibility. NimbleGen Mouse Whole Oligo 12-plex chip used in this experiment was prepared by triplicating 42,576 genes using Mouse Genome Build 8 as database. In NimbleGen mouse Whole Oligo 12-plex chip, 137,090 spots excluded control group gene were spotted by 16 μm×16 μm size in 17.4 mm×13 mm size. 42,576 oligo included […] genes which are known their functions and 5,431 transcripts and EST sequences which are unknown their functions. 10-50 μg of total RNA was added in oligo-dT primer, reverse transcriptase, dNTP, Cy3-dUTP and Cy5-dUTP, and reverse-transcripted according to the kit manufacturer's recommendations. The resultant was purified using cartridge, dried and dissolved in hybridization buffer solution (30 μL). The microarray was placed in hybridization cassette, heated at 95-100° C. for 5 min, mixed independently to each of RNA labeled with Cy3 and Cy5, and hybridized at 45° C. for 18 hrs. The slide was washed twice in solution containing 1×SSC and 0.1% SDS for 5 min, washed in 1×SSC for 5 min and dried to analyze.
(§5) The profile for olfactory receptors in which the expression was regulated by more than 2-fold change due to intake of odor components at each tissue was shown in Tables 5. As a result, it was determined that various types of odor components having anti-obesity efficacy regulated a plurality of olfactory receptors in peripheral tissues.

[6] = test system: AKT (v-akt murine thymoma viral oncogene); assay: Western blotting, protein phosphorylation of AKT; format: in vivo, mouse; conditions: for AKT phosphorylation, increase (change rate): odor component-supplemented group to the HFD control group
Experimental: as §6, §7

[7] = test system: olfactory receptors in visceral fat and liver tissues; assay: OligoDNA microarray, visceral fat and liver tissues of HFD mice fed odor components (tissue not separated in text); format: in vivo; conditions: supplemented to mouse fed high-fat diet for 10 weeks
From the text: as §2, §3, §4, §5

[8] = test system: obesity and metabolic diseases-related genes in visceral fat tissue; assay: RT-PCR of obesity and metabolic diseases-related genes, visceral fat tissue; format: in vivo, mouse; conditions: odor component-supplemented group to the HFD control group
Experimental: as §1

[9] = western blotting, compared to the HFD control group
[10] = supplemented to HFD-fed mouse 10 weeks

expression of olfactory receptor 380 [2]: increased
expression of olfactory receptor 1165 [2]: decreased
Olfr380 expression fold change to HFD group [2, 10]: 2.2
Olfr1165 expression fold change to HFD group [2, 10]: 0.39
Olfr1462 expression fold change to HFD group [2, 10]: 2.26
expression of olfactory receptor 1045 [5]: decreased
Olfr290 expression fold change to HFD group [5, 10]: 2.11
Olfr1045 expression fold change to HFD group [5, 10]: 0.45
expression of olfactory receptor 16 decreased [7]: more than 2 fold change
expression of olfactory receptor 116 increased [7]: more than 2 fold change
expression of olfactory receptor 178 increased [7]: more than 2 fold change
expression of olfactory receptor 196 decreased [7]: more than 2 fold change
expression of olfactory receptor 259 decreased [7]: more than 2 fold change
expression of olfactory receptor 290 increased [7]: more than 2 fold change
expression of olfactory receptor 380 increased [7]: more than 2 fold change
expression of olfactory receptor 466 decreased [7]: more than 2 fold change
expression of olfactory receptor 686 decreased [7]: more than 2 fold change
expression of olfactory receptor 909 increased [7]: more than 2 fold change
expression of olfactory receptor 972 decreased [7]: more than 2 fold change
expression of olfactory receptor 1045 decreased [7]: more than 2 fold change
expression of olfactory receptor 1093 decreased [7]: more than 2 fold change
expression of olfactory receptor 1153 increased [7]: more than 2 fold change
expression of olfactory receptor 1165 decreased [7]: more than 2 fold change
expression of olfactory receptor 1216 decreased [7]: more than 2 fold change
expression of olfactory receptor 1329 decreased [7]: more than 2 fold change
expression of olfactory receptor 1337 decreased [7]: more than 2 fold change
expression of olfactory receptor 1462 increased [7]: more than 2 fold change
Compound: OCc1c[nH]c2ccccc12 [indol-3-carbinol]
HSL phosphorylation, increase (change rate) [1]: 31% increase ^a)
phosphorylation of HSL [1, 9]: significantly increased
C/EBPα gene expression, decrease (change rate) [3]: 25% decrease
CPT1 gene expression, increase (change rate) [3]: 33% increase^
FAS gene expression, decrease (change rate) [3]: 27% decrease
IL-6 gene expression, decrease (change rate) [3]: 45% decrease
PPARγ2 gene expression, decrease (change rate) [3]: 36% decrease
TNFα gene expression, decrease (change rate) [3]: 33% decrease
aP2 gene expression, decrease (change rate) [3]: 29% decrease
CREB phosphorylation, increase (change rate) [4]: 45% increase
phosphorylation of CREB [4, 9]: significantly increased
AKT phosphorylation, increase (change rate) [6]: 40% increase
phosphorylation of AKT [6, 9]: significantly increased
C/EBPα gene expression, decrease (change rate) [8]: 11% decrease^a)
CPT1 gene expression, increase (change rate) [8]: 25% increase^
FAS gene expression, decrease (change rate) [8]: 56% decrease
IL-6 gene expression, decrease (change rate) [8]: 76% decrease
PGC1α gene expression, increase (change rate) [8]: 120% increase ^
PPARγ2 gene expression, decrease (change rate) [8]: 20% decrease
SIRT1 gene expression, increase (change rate) [8]: 45% increase^
TNFα gene expression, decrease (change rate) [8]: 23% decrease
UCP1 gene expression, increase (change rate) [8]: 210% increase ^
UCP3 gene expression, increase (change rate) [8]: 72% increase^
aP2 gene expression, decrease (change rate) [8]: 44% decrease

Compound: O=C(/C=C/C=C/c1ccc2c(c1)OCO2)N1CCCCC1 [piperine]
HSL phosphorylation, increase (change rate) [1]: 45% increase
C/EBPα gene expression, decrease (change rate) [3]: 8% decrease
CPT1 gene expression, increase (change rate) [3]: 44% increase^
FAS gene expression, decrease (change rate) [3]: 67% decrease
IL-6 gene expression, decrease (change rate) [3]: 71% decrease
PPARγ2 gene expression, decrease (change rate) [3]: 44% decrease
TNFα gene expression, decrease (change rate) [3]: 60% decrease
aP2 gene expression, decrease (change rate) [3]: 55% decrease
CREB phosphorylation, increase (change rate) [4]: 29% increase
Olfr38 expression fold change to HFD group [5, 10]: 3.93
Olfr77 expression fold change to HFD group [5, 10]: 0.42
Olfr520 expression fold change to HFD group [5, 10]: 2.24
Olfr878 expression fold change to HFD group [5, 10]: 5.56
Olfr1462 expression fold change to HFD group [5, 10]: 0.49
AKT phosphorylation, increase (change rate) [6]: 47% increase
expression of olfactory receptor 38 increased [7]: more than 2 fold change
expression of olfactory receptor 77 decreased [7]: more than 2 fold change
expression of olfactory receptor 520 increased [7]: more than 2 fold change
expression of olfactory receptor 878 increased [7]: more than 2 fold change
expression of olfactory receptor 1462 decreased [7]: more than 2 fold change
C/EBPα gene expression, decrease (change rate) [8]: 35% decrease
CPT1 gene expression, increase (change rate) [8]: 75% increase^
FAS gene expression, decrease (change rate) [8]: 52% decrease
IL-6 gene expression, decrease (change rate) [8]: 83% decrease
PGC1α gene expression, increase (change rate) [8]: 324% increase ^
PPARγ2 gene expression, decrease (change rate) [8]: 30% decrease
SIRT1 gene expression, increase (change rate) [8]: 36% increase^
TNFα gene expression, decrease (change rate) [8]: 75% decrease
UCP1 gene expression, increase (change rate) [8]: 905% increase ^
UCP3 gene expression, increase (change rate) [8]: 75% increase^
aP2 gene expression, decrease (change rate) [8]: 60% decrease
